Results on 27 compounds are retold here after US6512000B1, “Aminocarbonyl-substituted benzimidazoles having tryptase-inhibitory activity” (Boehringer Ingelheim Pharma KG, priority 1999, dated 2003).

Structures can show the parent of a compound that is named as a salt.

In one test the target is T1, rh beta tryptase (Homo sapiens, UniProt P20231).
T1 construct: purchased Promega
T1 sequence (P20231 31-275): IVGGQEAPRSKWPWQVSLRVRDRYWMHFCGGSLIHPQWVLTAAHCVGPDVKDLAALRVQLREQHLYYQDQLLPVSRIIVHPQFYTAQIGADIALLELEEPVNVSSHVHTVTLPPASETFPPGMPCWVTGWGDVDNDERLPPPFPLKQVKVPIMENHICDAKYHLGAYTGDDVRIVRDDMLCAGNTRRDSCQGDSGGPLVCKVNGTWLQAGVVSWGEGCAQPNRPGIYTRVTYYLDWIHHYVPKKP
Put plainly: Tryptase inhibition test (cleavage of N-p-tosyl-Gly-Pro-Lys-para-nitroaniline, p-nitroaniline measured at 405 nm). The settings on record: concentration at which 50% of the tryptase enzyme activity is inhibited; substrate 0.6 mM, pH 7.4, 37° C. Type of test: biochemical. The gist of the method:
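Recombinant human beta tryptase (0.91 U/ml) in 100 mM Tris HCl pH 7.4 with 5 mM calcium and 100 mg/ml heparin; compounds pre-incubated 5 min, then 0.6 mM tosyl-Gly-Pro-Lys-pNA added, 5 min at 37 °C. p-Nitroaniline read at 405 nm; % inhibition at 10 μM, IC50 determined when inhibition exceeded 70%.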
As for `N=C(N)c1ccc(CCc2nc3cc(C(=O)N(Cc4ccc(CN)cc4)Cc4cccc(C(F)(F)F)c4)ccc3n2CC2CC2)cc1` [Example 202, 2-[2-(4-amidinophenyl)ethyl]-1-cyclopropylmethyl-benzimidazol-5-yl-carboxylic acid-N-[4-(amino-methyl)-benzyl]-N-(3-trifluoromethylbenzyl)-amide], the IC50 was 822 nM. For the compound `Cc1ccccc1N1CCCN(C(=O)c2ccc3c(c2)nc(CCc2ccc(CN)cc2)n3C)CC1` [Example 41, 2-[2-(4-Aminomethyl-phenyl)-ethyl]-1-methyl-benzimidazol-5-yl-carboxylic Acid-[N′-(2-methyl-phenyl)-diazepide]-hydrochloride], inhibition was half-maximal at 172 nM (IC50). In turn, “2-[2-(4-amidinophenyl)ethyl]-1-(3-ethoxypropyl)-benzimidazol-5-yl-carboxylic acid-N-[4-(amino-methyl)-benzyl]-N-(3-pyridyl)-amide [Example 134]” came in with a half-maximal inhibitory concentration (IC50) of 231 nM.

In turn, `CN(Cc1ccc(C(=N)N)cc1)C(=O)c1ccc2c(c1)nc(CCc1ccc(C(=N)N)cc1)n2C` [Example 4, 2-[2-(4-Amidinophenyl)-ethyl]-1-methyl-benzimidazol-5-yl-carboxylic Acid-N-(4-amidino-benzyl)-N-methyl-amide-trihydrochloride] gave an IC50 of 81 nM. This IC50 lies about 2.9-fold lower than the previous one. Still for that read-out and setting: the figure for `CC(C)Oc1cccc(N2CCN(C(=O)c3ccc4c(c3)nc(CCc3ccc(C(=N)N)cc3)n4C)CC2)c1` [Example 49, 2-[2-(4-Amidinophenyl)-ethyl]-1-methyl-benzimidazol-5-yl-carboxylic Acid-[N ′-(3-isopropyloxyphenyl)-piperazide]] is 152 nM; for `CCOc1ccccc1N1CCN(C(=O)c2ccc3c(c2)nc(CCc2ccc(C(=N)N)cc2)n3C)CC1` [Example 54, 2-[2-(4-Amidinophenyl)-ethyl]-1-methyl-benzimidazol-5-yl-carboxylic Acid-[N′-(2-ethoxyphenyl)-piperazide]] it is 305 nM.

The compound `CCOCCCn1c(CCc2ccc(C(=N)N)cc2)nc2cc(C(=O)N(CCN)Cc3ccccc3)ccc21` [Example 294, 2-[2-(4-amidinophenyl)ethyl]-1-(3-ethoxypropyl)-benzimidazol-5-yl-carboxylic acid-N-(2-aminoethyl)-N-benzyl-amide] registered an IC50 of 350 nM. Compound `Cn1c(CCc2ccc(CN)cc2)nc2cc(C(=O)N(CCCc3ccccc3)Cc3ccc(CN)cc3)ccc21` [Example 42, 2-[2-(4-aminomethyl-phenyl)-ethyl]-1-methyl-benzimidazol-5-yl-carboxylic Acid-N-(4-aminomethyl-benzyl)-N-(3-phenylpropyl)-amide-dihydrochloride] gave an IC50 of 836 nM. The same measure, in the same setting: the figure for `Cn1c(CCc2ccc(C(=N)N)cc2)nc2cc(C(=O)N3CCN(C4CCCC4)CC3)ccc21` [Example 50, 2-[2-(4-Amidinophenyl)-ethyl]-1-methyl-benzimidazol-5-yl-carboxylic Acid-[N′-(cyclopentyl)-piperazide]] is 176 nM.

Staying with this test, now noted: inhibition of rh beta tryptase at 10 μM test substance; substrate N-p-tosyl-Gly-Pro-Lys-para-nitroaniline 0.6 mM, pH 7.4, 37° C., 5 minutes.
As for “2-[2-(4-amidinophenyl)ethyl]-1-(2-cyclohexylethyl)-benzimidazol-5-yl-carboxylic acid-N-[4-(amino-methyl)-benzyl]-N-(2-pyridyl)-amide [Example 121]”, the “% Inhibition (10 μM)” value is given as 52%. Same read-out and setting: next, “2-[2-(4-amidinophenyl)ethyl]-1-(tetrahydrofuran-2-yl-methyl)-benzimidazol-5-yl-carboxylic acid-N-(2-aminoethyl)-N-(2-pyridyl)-amide [Example 322]”: 51%. Take `COc1cccc(CN(Cc2ccc(CN)cc2)C(=O)c2ccc3c(c2)nc(CCc2ccc(C(=N)N)cc2)n3CC2CCCO2)c1` (stereo not drawn) [Example 82, 2-[2-(4-amidinophenyl)ethyl]-1-(tetrahydrofuran-2-yl-methyl)-benzimidazol-5-yl-carboxylic acid-N-[4-(amino-methyl)-benzyl]-N-(3-methoxybenzyl)-amide]: testing at 10 µM gave an inhibition of 61%. The same measure, in the same setting: the figure for `N=C(N)c1ccc(CCc2nc3cc(C(=O)N(Cc4ccc(CN)cc4)Cc4cccc(C(F)(F)F)c4)ccc3n2CC2CC2)cc1` [Example 202, 2-[2-(4-amidinophenyl)ethyl]-1-cyclopropylmethyl-benzimidazol-5-yl-carboxylic acid-N-[4-(amino-methyl)-benzyl]-N-(3-trifluoromethylbenzyl)-amide] is 58%; for `N=C(N)c1ccc(CCc2nc3cc(C(=O)N(Cc4ccc(CN)cc4)Cc4cccc(C(F)(F)F)c4)ccc3n2CCc2ccccc2)cc1` [Example 203, 2-[2-(4-amidinophenyl)ethyl]-1-(2-phenylethyl)-benzimidazol-5-yl-carboxylic acid-N-[4-(amino-methyl)-benzyl]-N-(3-trifluoromethylbenzyl)-amide] it is 53%. Same read-out and setting: next, `CCCCN(CCCC)CCCn1c(CCc2ccc(C(=N)N)cc2)nc2cc(C(=O)N(Cc3ccc(CN)cc3)Cc3cccc(OC)c3)ccc21` [Example 71, 2-[2-(4-amidinophenyl)ethyl]-1-(3-di-n-butylaminopropyl)-benzimidazol-5-yl-carboxylic acid-N-[4-(amino-methyl)-benzyl]-N-(3-methoxybenzyl)-amide]: 58%; `N=C(N)c1ccc(CCc2nc3cc(C(=O)N(Cc4ccc(CN)cc4)Cc4ccc5ccccc5c4)ccc3n2CCCNC(=O)Cc2ccccc2)cc1` [Example 232, 2-[2-(4-amidinophenyl)ethyl]-1-[3-(benzylcarbonylamino)-propyl]-benzimidazol-5-yl-carboxylic acid-N-[4-(amino-methyl)-benzyl]-N-(2-naphthylmethyl)-amide]: 58%. With “2-[2-(4-amidinophenyl)ethyl]-1-(3-ethoxypropyl)-benzimidazol-5-yl-carboxylic acid-N-[4-(amino-methyl)-benzyl]-N-(3-pyridyl)-amide [Example 134]”, the “% Inhibition (10 μM)” value turned out to be 69%. `N=C(N)c1ccc(CCc2nc3cc(C(=O)N(Cc4ccccc4)Cc4ccc(CN)cc4)ccc3n2CCCNC(=O)Cc2ccccc2)cc1` [Example 104, 2-[2-(4-amidinophenyl)ethyl]-1-[3-(benzylcarbonylamino)-propyl]-benzimidazol-5-yl-carboxylic acid-N-[4-(amino-methyl)-benzyl]-N-benzyl-amide] came in with an inhibition at 10 µM of 74%. Take “2-[2-(4-amidinophenyl)ethyl]-1-(2-cyclohexylethyl)-benzimidazol-5-yl-carboxylic acid-N-[4-(amino-methyl)-benzyl]-N-(3-pyridyl)-amide [Example 137]”: the “% Inhibition (10 μM)” value amounted to 52%. With `CCCCN(Cc1ccc(CN)cc1)C(=O)c1ccc2c(c1)nc(CCc1ccc(C(=N)N)cc1)n2Cc1ccc(C)cc1` [Example 93, 2-[2-(4-amidinophenyl)ethyl]-1-(4-methylbenzyl)-benzimidazol-5-yl-carboxylic acid-N-[4-(amino-methyl)-benzyl]-N-n-butyl-amide], the inhibition at 10 µM stood at 56%. For the compound `CCOCCCn1c(CCc2ccc(C(=N)N)cc2)nc2cc(C(=O)N(CCN)Cc3ccc(Cl)cc3)ccc21` [Example 374, 2-[2-(4-amidinophenyl)ethyl]-1-(3-ethoxypropyi)-benzimidazol-5-yl-carboxylic acid-N-(2-aminoethyl)-N-(4-chlorbenzyl)-amide], the “% Inhibition (10 μM)” value came to 62%. Compound `CCCCN(Cc1ccc(CN)cc1)C(=O)c1ccc2c(c1)nc(CCc1ccc(C(=N)N)cc1)n2CC1CCCO1` (stereo not drawn) [Example 98, 2-[2-(4-amidinophenyl)ethyl]-1-(tetrahydrofuran-2-yl-methyl)-benzimidazol-5-yl-carboxylic acid-N-[4-(amino-methyl)-benzyl]-N-n-butyl-amide] returned an inhibition at 10 µM of 67%.

Compound `N=C(N)c1ccc(CCc2nc3cc(C(=O)N(Cc4ccc(CN)cc4)Cc4cccc(C(F)(F)F)c4)ccc3n2CCCNC(=O)Cc2ccccc2)cc1` [Example 200, 2-[2-(4-amidinophenyl)ethyl]-1-[3-(benzylcarbonylamino)-propyl]-benzimidazol-5-yl-carboxylic acid-N-[4-(amino-methyl)-benzyl]-N-(3-trifluoromethylbenzyl)-amide] came in with an inhibition at 10 µM of 69%. In the case of “2-[2-(4-amidinophenyl)ethyl]-1-(tetrahydrofuran-2-yl-methyl)-benzimidazol-5-yl-carboxylic acid-N-[4-(amino-methyl)-benzyl]-N-(2-pyridyl)-amide [Example 130]”, the “% Inhibition (10 μM)” value came out at 77%. With `N=C(N)c1ccc(CCc2nc3cc(C(=O)N(CCN)Cc4ccccc4)ccc3n2CC2CCCO2)cc1` (stereo not drawn) [Example 306, 2-[2-(4-amidinophenyl)ethyl]-1-(tetrahydrofuran-2-yl-methyl)-benzimidazol-5-yl-carboxylic acid-N-(2-aminoethyl)-N-benzyl-amide], the inhibition at 10 µM amounted to 62%. For `Cc1ccccc1N1CCN(CCCn2c(CCc3ccc(C(=N)N)cc3)nc3cc(C(=O)N(CCN)Cc4ccc(Cl)cc4)ccc32)CC1` [Example 384, 2-[2-(4-amidinophenyl)ethyl]-1-{3-[4-(2-methylphenyl)-piperazin-1-yl]-propyl} -benzimidazol-5-yl-carboxylic acid-N-(2-aminoethyl)-N-(4-chlorbenzyl)-amide], the “% Inhibition (10 μM)” value was determined as 59%.

In turn, `CCCCN(Cc1ccc(CN)cc1)C(=O)c1ccc2c(c1)nc(CCc1ccc(C(=N)N)cc1)n2CCCN1CCN(c2ccccc2C)CC1` [Example 96, 2-[2-(4-amidinophenyl)ethyl]-1-{3-[4-(2-methylphenyl)-piperazin-1-yl]-propyl}-benzimidazol-5-yl-carboxylic acid-N-[4-(amino-methyl)-benzyl]-N-n-butyl-amide] gave an inhibition at 10 µM of 55%. Same read-out and setting: the figure for `CCOCCCn1c(CCc2ccc(C(=N)N)cc2)nc2cc(C(=O)N(CCN)Cc3ccccc3)ccc21` [Example 294, 2-[2-(4-amidinophenyl)ethyl]-1-(3-ethoxypropyl)-benzimidazol-5-yl-carboxylic acid-N-(2-aminoethyl)-N-benzyl-amide] is 69%; for `COC(=O)c1ccc(CN(Cc2ccc(CN)cc2)C(=O)c2ccc3c(c2)nc(CCc2ccc(C(=N)N)cc2)n3CC2CC2)cc1` [Example 442, 2-[2-(4-amidinophenyl)ethyl]-1-cyclopropylmethyl-benzimidazol-5-yl-carboxylic acid-N-[4-(amino-methyl)-benzyl]-N-[4-(methoxycarbonyl)-benzyl]-amide] it is 59%. In the case of `N=C(N)c1ccc(CCc2nc3cc(C(=O)N(CCN)CC4CCCCC4)ccc3n2Cc2cccs2)cc1` [Example 355, 2-[2-(4-amidinophenyl)ethyl]-1-(2-thiophenyl-methyl)-benzimidazol-5-yl-carboxylic acid-N-(2-aminoethyl)-N-cyclohexylmethyl-amide], 10 µM produced 51% inhibition.

By IC50 is commonly meant the concentration needed to halve the response being measured. The low end stands for greater potency, the high end for weaker potency. As usually defined, the inhibition is the change of the read-out against control, counted positive when it falls. High values mean a response far below the control, low ones a response near the control.
